Laboratory results: patent US20240199677A1, “GLYCOSYLTRANSFERASE INHIBITORS” (CALIFORNIA INSTITUTE OF TECHNOLOGY, priority 2018, published 2024)
Converted amounts (≈) assume the structure as drawn. Read-outs that look alike come from different tables or passages of the source.

Legend:
[1] = test system: C. difficile ATCC43596; assay: Minimum inhibitory concentration assay; settings: for MIC: Clostridioides difficile, ATCC43596, 48 h, read-out: C. difficile ATCC43596 MIC; for C. difficile ATCC43596 MIC: 48 h, 37° C.
[2] = test system: C. difficile spores; assay: Spore viability testing; assay type: cell-based; settings: for Effect on viability of C. difficile spores (CFU): x2 MIC, 24 hours; for Inhibition of spore germination: x5 MIC
[3] = test system: Vero cells; assay: Cytotoxicity MTT assay, Vero cells; assay type: cell-based, monkey
Method: (§1) Cytotoxicity Assays. Cytotoxicity assays were performed using Vero monkey kidney (ATCC CCL-81) and HepG2 human hepatoblastoma cell (ATCC HB-8065) lines. Vero or HepG2 cells were cultured in 75 cm^2 flasks and transferred to 96-well cell culture plates using ATCC-formulated Eagle's minimum essential medium containing 10% FBS, penicillin, and streptomycin. Serially diluted aliquots of each test compound at concentrations ranging from 0.78-200 μg/mL were added to the cells. […] The plates were incubated and cytotoxic effects were determined via the MTT assay.
(§2) Selected molecules were tested for cytotoxicity (IC50) in cancer and healthy cells via a MTT colorimetric assay.
(§3) Cytotoxicity Assays. For Vero cells: Vero cell was cultured in Complete eagle's minimum essential growth medium (EMEM) containing L-glutamine, sodium pyruvate, minimum essential amino acids, penicillin-streptomycin and 10% fetal bovine serum. Inoculating number of cells were 400,000 cells/mL and a final 40,000 cells/well. After 72 h of exposure of molecules to this cell line at concentrations ranging from 0.78 to 200 μg/mL, the culture medium was changed to complete EMEM without phenol red before addition of yellow tetrazolium dye; MTT. Viability was assessed on the basis of cellular conversion of MTT into a purple formazan product. The absorbance of the colored formazan product was measured at 570 nm by BioTek Synergy HT Spectrophotometer. Linearity of the MTT response to the cell number was determined.

[4] = Hemolysis, sheep blood; assay type: cell-based; settings: sheep, sheep blood
[5] = test system: MraY; settings: read-out: MraY inhibition IC50
[6] = test system: AsPc-1 cells; assay: Synergistic assay (checkerboard), 11 and Gemcitabine; assay type: cell-based
Method: (§4) The FIC index was calculated according to the following equation. ΣFIC=FICA+FICB=CA/MICA+CB/MICB where MICA and MICB are MIC of drugs A and B, CA and CB are the concentrations of drugs A and B used in combination. In these interaction studies, ΣFIC of less than 0.5 represents synergistic activity.
These experiments were performed in the same manner as those of Example 7.

[7] = test system: AsPc-1; assay: Cytotoxicity MTT assay, AsPc-1; assay type: cell-based
Method: as §2
(§5) Each cell was cultured in recommended medium by ATCC, and the IC50 data were obtained with each cell line.

[8] = Cytotoxicity MTT assay, Vero cells; assay type: cell-based, monkey; settings: monkey
Method: as §1, §2, §3

[9] = test system: MDA-MB-435S; assay: Cytotoxicity MTT assay, MDA-MB-435S; assay type: cell-based
Method: as §2, §5

[10] = test system: LoVo; assay: Cytotoxicity MTT assay, LoVo; assay type: cell-based
Method: as §2, §5

[11] = test system: HPAF-II; assay: Cytotoxicity MTT assay, HPAF-II; assay type: cell-based
Method: as §2, §5

[12] = test system: Panc-1; assay: Cytotoxicity MTT assay, Panc-1; assay type: cell-based
Method: as §2, §5

[13] = test system: KB; assay: Cytotoxicity MTT assay, KB; assay type: cell-based
Method: as §2, §5

[14] = test system: L12210; assay: Cytotoxicity MTT assay, L12210; assay type: cell-based
Method: as §2, §5

[15] = test system: SK-OV-3; assay: Cytotoxicity MTT assay, SK-OV-3; assay type: cell-based
Method: as §2, §5

[16] = test system: AsPc-1 cells; assay: Synergistic assay (checkerboard), 11 and Paclitaxel; assay type: cell-based
Method: as §4

[17] = test system: HepG2; assay: Cytotoxicity MTT assay, HepG2; assay type: cell-based; settings: human
[18] = test system: Caco-2; assay: Cytotoxicity MTT assay, Caco-2; assay type: cell-based; settings: human
Method: as §2, §5

[19] = target: M. jannaschii AgIH (Methanocaldococcus jannaschii (strain ATCC 43067 / DSM 2661 / JAL-1 / JCM 10045 / NBRC 100440) (Methanococcus jannaschii), UniProt Q58513); settings: read-out: AgIH inhibition IC50, M. jannaschii AgIH
Sequence of M. jannaschii AgIH (Q58513 whole entry, looked up): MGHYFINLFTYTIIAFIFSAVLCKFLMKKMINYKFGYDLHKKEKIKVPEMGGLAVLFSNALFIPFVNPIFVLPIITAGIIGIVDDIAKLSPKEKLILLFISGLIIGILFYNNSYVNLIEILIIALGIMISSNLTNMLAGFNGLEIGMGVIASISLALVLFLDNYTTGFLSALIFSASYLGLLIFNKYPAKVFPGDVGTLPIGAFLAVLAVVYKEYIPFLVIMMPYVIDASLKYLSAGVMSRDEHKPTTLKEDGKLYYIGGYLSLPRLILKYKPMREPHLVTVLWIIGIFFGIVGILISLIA

Compound: CCCCCCCc1ccc(NC(=O)CCCN(C)[C@H](C(N)=O)[C@H](OC2O[C@H](CN)[C@@H](O)[C@H]2O)[C@H]2O[C@@H](n3ccc(=O)[nH]c3=O)C(O)[C@H]2O)cc1 (stereo partly drawn) [Compound 9]
- Anti-C. difficile activity [1]: display anti-C. difficile activity
- MIC [1]: 25 mg/L (≈ 34.7 µM)
- Effect on viability of C. difficile spores (CFU) [2]: caused loss of viability of C. difficile spores

Compound: CCCCCCCc1ccc(NC(=O)CCCN[C@H](C(N)=O)[C@H](OC2O[C@H](CN)[C@@H](O)[C@H]2O)[C@H]2O[C@@H](n3ccc(=O)[nH]c3=O)C(O)[C@H]2O)cc1 (stereo partly drawn) [Compound 10]
- IC50 ([3]; Primates, Vero, Table 2, read-out: Vero cells IC50): 7.08 µM
- IC50 [4]: 70 µM
- Anti-C. difficile activity [1]: display anti-C. difficile activity
- Effect on viability of C. difficile spores (CFU) [2]: caused loss of viability of C. difficile spores

Compound: CN(CCCC(=O)NCc1ccc(N2CCC(Oc3ccc(C(F)(F)F)cc3)CC2)cc1)[C@H](C(N)=O)[C@H](O[C@@H]1O[C@H](CN)[C@@H](O)[C@H]1O)[C@H]1O[C@@H](n2ccc(=O)[nH]c2=O)[C@H](O)C1O (stereo partly drawn) [Compound 12]
- Anti-C. difficile activity [1]: display anti-C. difficile activity
- MIC [1]: 50 mg/L (≈ 56.8 µM)

Compound: CN(CCCN)[C@H](C(=O)O)[C@H](O[C@@H]1O[C@H](CN)[C@@H](O)[C@H]1O)[C@H]1O[C@@H](n2ccc(=O)[nH]c2=O)[C@H](O)[C@@H]1O [FR-900493 (1), FR-900493, reference compound]
- IC50 [5]: 25 µM
- C. difficile ATCC43596 MIC [1]: >50 mg/L

Compound: Nc1ccn([C@@H]2O[C@H](CO)[C@@H](O)C2(F)F)c(=O)n1 [Gemcitabine, reference compound]
- IC50 ([6]; Homo sapiens, ASPC1, Gemcitabine alone, AsPc-1 cells, read-out: IC50 B): 0.39 µM
- Concentration in combination resulting in AsPc-1 cell death ([6]; as low as, 11 together with Gemcitabine): 0.977 µM

Compound: CC(=O)O[C@H]1C(=O)[C@@]2(C)[C@H]([C@H](OC(=O)c3ccccc3)[C@]3(O)C[C@H](OC(=O)[C@H](O)[C@@H](NC(=O)c4ccccc4)c4ccccc4)C(C)=C1C3(C)C)[C@]1(OC(C)=O)CO[C@@H]1C[C@@H]2O [Taxol, Paclitaxel]
- IC50 ([7]; Homo sapiens, ASPC1, read-out: Cytotoxicity IC50 AsPc-1): 0.19 µM
- IC50 at 72 h [8]: 0.19 µM
- IC50 ([9]; Homo sapiens, MDA-MB-435S, read-out: Cytotoxicity IC50 MDA-MB-435S): 0.11 µM
- IC50 ([10]; Homo sapiens, LoVo, read-out: Cytotoxicity IC50 LoVo): 0.057 µM
- IC50 ([11]; Homo sapiens, HPAF-II, read-out: Cytotoxicity IC50 HPAF-II): 0.02 µM
- IC50 ([12]; Homo sapiens, PANC-1, read-out: Cytotoxicity IC50 Panc-1): 0.02 µM
- IC50 ([13]; Homo sapiens, KB, read-out: Cytotoxicity IC50 KB): 0.79 µM
- IC50 ([14]; read-out: Cytotoxicity IC50 L12210): 0.55 µM
- IC50 ([15]; Homo sapiens, SK-OV-3, read-out: Cytotoxicity IC50 SK-OV-3): 1.08 µM
- IC50 ([16]; Homo sapiens, ASPC1, Paclitaxel alone, AsPc-1 cells, read-out: IC50 B): 0.55 µM
- Taxol concentration to kill AsPc-1 cells when combined with 11 ([16]; as low as, combined with 11): 7 nM

Compound: CC(=O)NC[C@H]1CN(c2ccc(N3CCOCC3)c(F)c2)C(=O)O1 [linezolid, reference compound]
- Inhibition of spore germination [2]: did not inhibit the spore germination

Compound: Cc1ncc([N+](=O)[O-])n1CCO [metronidazole, reference compound]
- Inhibition of spore germination [2]: did not inhibit the spore germination

Compound: CN[C@H](CC(C)C)C(=O)N[C@H]1C(=O)N[C@@H](CC(N)=O)C(=O)N[C@H]2C(=O)N[C@H]3C(=O)N[C@H](C(=O)N[C@H](C(=O)O)c4cc(O)cc(O)c4-c4cc3ccc4O)[C@H](O)c3ccc(c(Cl)c3)Oc3cc2cc(c3O[C@@H]2O[C@H](CO)[C@@H](O)[C@H](O)[C@H]2O[C@H]2C[C@](C)(N)[C@H](O)[C@H](C)O2)Oc2ccc(cc2Cl)[C@H]1O [vancomycin, reference compound]
- MIC [1]: 2.5 mg/L (≈ 1.73 µM)
- Inhibition of spore germination [2]: did not inhibit the spore germination

Compound: Tunicamycin
- IC50 ([7]; human): 0.46 µM
- IC50 [17]: 0.19 µM
- IC50 ([3]; Table 2, read-out: Vero cells IC50): 0.12 µM
- IC50 ([3]; Table 3, 72 h exposure, read-out: Cytotoxicity IC50 Vero): 0.12 µM
- IC50 [18]: 0.95 µM
- IC50 ([9]; human): 0.9 µM
- IC50 ([10]; human): 1.7 µM
- IC50 [19]: 13.3 µM
- C. difficile ATCC43596 MIC [1]: >50 mg/L
- IC50 ([11]; human): < 0.098 µM
- IC50 ([12]; human): 0.625 µM
- IC50 ([13]; human): 2.5 µM
- IC50 ([14]; mouse): 1.7 µM
- IC50 ([15]; human): 1.85 µM
